# In article PMC9549030, “Structural basis for specific inhibition of the deubiquitinase UCHL1” (Nature Communications, 2022):
# Changes are numbered by the printed parent chain. Values joined by “and” are separate entries in the source; they are usually repeats but may differ in a detail not shown here. Identical values can stand only once. Like-named read-outs stand apart in the source and are kept apart here.
# Columns and labels:
# [1] = target: T1, UCHL1 (Homo sapiens, UniProt P09936); test: Identification of probe-labeled proteins with mass spectrometry (pulldown enrichment); conditions: HEK293 cells, 24 h
# T1 sequence (P09936 1-223): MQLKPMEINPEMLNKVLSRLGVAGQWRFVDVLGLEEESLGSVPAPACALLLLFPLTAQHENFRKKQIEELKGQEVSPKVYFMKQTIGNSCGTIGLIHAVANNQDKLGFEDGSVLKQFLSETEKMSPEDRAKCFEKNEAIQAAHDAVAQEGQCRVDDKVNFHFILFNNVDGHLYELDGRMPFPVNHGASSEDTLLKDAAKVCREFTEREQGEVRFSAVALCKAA
# Protocol: Cells were cultured, treated with a compound, and lysed as described above. The cell lysate was diluted to a protein concentration of 2 mg/mL with ABP lysis buffer. 1 µL of each click reagent (see above) were added to each sample, followed by an incubation period of one hour at room temperature with protection from light. The sample volume was adjusted to 1000 µL with PBS and 30 µL of a NeutrAvidin (Thermo Fisher) bead slurry (prewashed 3x with PBS) were added to each sample. The samples were incubated for one hour to overnight on a rotator at 15 rpm at 4 °C. Beads were pelleted by centrifugation, the supernatant was discarded, and the beads were washed six times (1x with ½x lysis buffer, followed by five washes with PBS). After removing the washing solution completely, the beads were subjected to reduction with dithiothreitol (1 mM), alkylation with chloroacetamide (5 mM) and on-bead digestion with first LysC (Serva Biotech, 1 h, 37 °C), followed by trypsin (Sigma Aldrich, 1 h, overnight). Tryptic peptides were desalted with C18 StageTips and analyzed by nano-HPLC-MS/MS.
# An Ultimate 3000 RSLC nano-HPLC system and a Hybrid-Orbitrap mass spectrometer (Q Exactive Plus) equipped with a nano-spray source (Thermo Fisher Scientific) was used. The protein fragments were enriched on a C18 PepMap 100 column (5 μm, 100 Å, 300 μm ID * 5 mm, Dionex) using 0.1% TFA, at a flow rate of 30 μL/min, for 5 min and separated on a C18 PepMap 100 column (3 μm, 100 Å, 75 μm ID × 50 cm) using a linear gradient (5–30% ACN/H2O + 0.1% formic acid over 90 min) with a flow rate of 300 nL/min. […] Signals in the mass range of m/z 300 to 1650 were acquired at a resolution of 70,000 for the full scan, followed by ten high-energy collision-dissociation (HCD) MS/MS scans of the most intense at least doubly charged ions at a resolution of 17,500. Proteins were relatively quantified by using MaxQuant[60] v.2.0.3.1, including the Andromeda search algorithm and searching the Homo sapiens reference proteome of the UniProt database. Briefly, an MS/MS ion search was performed for enzymatic trypsin cleavage, allowing two missed cleavages. Carbamidomethylation was set as a fixed protein modification, and oxidation of methionine and acetylation of the N-terminus were set as variable modifications. The mass accuracy was set to 20 parts per million (ppm) for the first search and to 4.5 ppm for the second search. The false discovery rates for peptide and protein identification were set to 0.01. Only proteins for which at least two peptides were quantified were chosen for further validation. Relative quantification of proteins was performed by using the label-free quantification algorithm implemented in MaxQuant. Statistical data analysis of pulldown samples was performed using Perseus[61] v.1.6.15.0, including proteins which were identified in at least four of the five biological replicates which were used per condition. Label-free quantification (LFQ) intensities were log-transformed (log2); replicate samples were grouped together. Pairwise comparisons of groups were performed separately. Missing values were imputed using small normally distributed values (width 0.3, downshift 1.8) and a two-sided t-test (s0 = 5, FDR = 0.001) was performed.
# [2] = target: T2, UCHL3 (Homo sapiens, UniProt P15374); test: Ub-Rhodamine (Ubiquitin rhodamine cleavage) assay; format: biochemical; conditions: for normalized UCHL3 activity: independent experiments
# T2 sequence (P15374 1-230): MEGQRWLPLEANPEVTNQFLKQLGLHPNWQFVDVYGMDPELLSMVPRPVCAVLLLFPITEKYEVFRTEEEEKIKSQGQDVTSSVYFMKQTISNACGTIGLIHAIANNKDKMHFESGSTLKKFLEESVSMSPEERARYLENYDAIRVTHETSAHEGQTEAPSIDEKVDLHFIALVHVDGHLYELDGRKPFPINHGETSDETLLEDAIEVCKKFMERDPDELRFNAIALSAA
# [3] = target: T1, UCHL1; test: Intact protein mass spectrometry; format: binding; conditions: compound 10 µM
# Description: (§1) Spectra were deconvoluted with ProMass (Enovatia).
# [4] = target: T3, UCHL3 A11I (Homo sapiens, UniProt P15374, A11I); test: Intact protein mass spectrometry; format: binding; conditions: enzyme 3 µM; compound 10 µM; 1 h
# T3 sequence (P15374 1-230 A11I): T2 sequence (P15374 1-230) with A11I
# Description: as §1
# [5] = target: T2, UCHL3; test: Intact protein mass spectrometry; format: binding; conditions: enzyme 3 µM; compound 10 µM; 1 h
# Description: as §1
# [6] = target: T4, UCHL3 L168F (Homo sapiens, UniProt P15374, L168F); test: Intact protein mass spectrometry; format: binding; conditions: enzyme 3 µM; compound 10 µM; 1 h
# T4 sequence (P15374 1-230 L168F): T2 sequence (P15374 1-230) with L168F
# Description: as §1
# [7] = system: HEK293 cells; test: Cell growth and viability assay (confluency, propidium iodide); format: cell-based, human; conditions: up to 5 µM, up to 72 h
# Protocol: (§2) HEK293 cells (5 × 10^3/well) or U-87 MG cells (5.5 × 10^3/well) were seeded into 96-well dishes. The following day cells were treated with the compounds at varying concentrations and propidium iodide at 20 µg/mL. The plates were immediately transferred to the Incucyte S3. Bright-field and red fluorescent images were automatically captured at 1 or 2 h intervals for 72 h with 10x magnification. The confluency of cells and the number of PI-positive cells was determined using the Incucyte masking program.
# [8] = system: U-87 MG cells; test: as above; format: cell-based, human; conditions: up to 5 µM, up to 72 h
# Protocol: as §2
# [9] = target: T1, UCHL1; test: Thermal shift assay; format: binding; conditions: UCHL1 1 µM, 1 h, replicates
# Protocol: Reactions were performed in white 96-well PCR plates (Bio-Rad). UCHL1 was diluted in thermal shift buffer (1x PBS, 5 mM DTT) to a 4x concentration of 4 µM. The protein was then mixed with 4x compound dissolved in thermal shift buffer in a 1:1 ratio. To each well was added 20 µL of DUB-Inhibitor solution, followed by 1 h incubation time. To each well was then added 20 µL 4x SYPRO Orange in thermal shift buffer. After sealing the plates with a transparent film, thermal denaturation (gradient: 20–90 °C; Increment: 0.3 °C, hold for 5 s before read) was performed and monitored by a Bio-Rad Connect cycler.
# [10] = target: T1, UCHL1; test: Ub-Rhodamine (Ubiquitin rhodamine cleavage) assay; format: biochemical; conditions: for normalized UCHL1 activity: independent experiments
# [11] = GK13S 0.610352 nM, 1 h preincubation
# [12] = GK13S 1.2207 nM, 1 h preincubation
# [13] = GK13S 2.44141 nM, 1 h preincubation
# [14] = GK13S 4.88281 nM, 1 h preincubation
# [15] = GK13S 9.76562 nM, 1 h preincubation
# [16] = GK13S 19.5312 nM, 1 h preincubation
# [17] = GK13S 39.0625 nM, 1 h preincubation
# [18] = 1 h, read-out: UCHL1 activity, data point mean
compound,measurement,setting,value
C#CCCCNC(=O)c1ccc(-n2cnc(NC(=O)[C@H]3CCN(C#N)C3)c2)cc1 [GK13S],"change in log2 enrichment values of UCHL1, GK13S vs GK13R",[1]; 1 µM,2
same,"change in log2 enrichment values of UCHL1, GK13S vs GK16S",[1]; 1 µM,5
same,"difference in UCHL1 enrichment, GK13S vs GK13R",[1]; 1 µM,fourfold
same,"difference in UCHL1 enrichment, GK13S vs GK16S",[1]; 1 µM,> 32 fold
same,"enrichment factor of UCHL1 (log2, vs DMSO)",[1]; 1 µM,8 and > 8
same,enrichment of UCHL1 vs DMSO,[1]; 5 µM,~ 3000 fold
same,"logarithmic enrichment factor of UCHL1 (log2, vs DMSO)",[1]; 5 µM,11.5
same,IC50,"[2]; Fig. 6b, catalytic domain, 1 h preincubation, read-out: IC50 (UCHL3)",> 10000 nM
same,normalized UCHL3 activity,"[2]; GK13S 0.305176 nM, 1 h preincubation",0.9831 and 1.008 and 0.9131 and 1.009
same,normalized UCHL3 activity,[2]; [11],1.008 and 0.9835 and 0.9698 and 1.0514
same,normalized UCHL3 activity,[2]; [12],0.9936 and 1.008 and 1.001 and 1.003
same,normalized UCHL3 activity,[2]; [13],1.012 and 1.01 and 1.135 and 1.033
same,normalized UCHL3 activity,[2]; [14],1.012 and 1.015 and 0.9843 and 1.023
same,normalized UCHL3 activity,[2]; [15],0.9453 and 1.0198 and 0.9972 and 1.02
same,normalized UCHL3 activity,[2]; [16],1.009 and 0.9664 and 0.9869 and 0.9884
same,normalized UCHL3 activity,[2]; [17],0.985 and 0.9652 and 1.009 and 1.006
same,normalized UCHL3 activity,"[2]; GK13S 78.125 nM, 1 h preincubation",1.004 and 0.9567 and 0.9151 and 0.8923
same,normalized UCHL3 activity,"[2]; GK13S 156.25 nM, 1 h preincubation",0.9712 and 0.9475 and 0.9259 and 1.044
same,normalized UCHL3 activity,"[2]; GK13S 312.5 nM, 1 h preincubation",1.024 and 0.9438 and 0.9427 and 1.0301
same,normalized UCHL3 activity,"[2]; GK13S 625 nM, 1 h preincubation",1.039 and 0.9614 and 0.9134 and 1.027
same,normalized UCHL3 activity,"[2]; GK13S 1250 nM, 1 h preincubation",1.008 and 0.9574 and 0.9187 and 1.016
same,normalized UCHL3 activity,"[2]; GK13S 2500 nM, 1 h preincubation",0.975 and 0.9516 and 0.9328 and 0.9957
same,normalized UCHL3 activity,"[2]; GK13S 5000 nM, 1 h preincubation",0.9885 and 0.924 and 0.8998 and 0.9921
same,normalized UCHL3 activity,"[2]; GK13S 10000 nM, 1 h preincubation",0.972 and 0.9338 and 0.9178 and 0.9898
same,IC50,"[2]; Supplementary Fig. 10c, 3 independent experiments, read-out: IC50 (UCHL3 wt)",> 100000 nM
same,stoichiometry of covalent binding to UCHL1,"[3]; UCHL1 3 µM, 16 h",bound only once
same,protein species observed after compound treatment,"[3]; enzyme 3 µM, 1 h",UCHL1 + 1x GK13S
same,protein species observed after compound treatment,[4],free UCHL3 A11I
same,protein species observed after compound treatment,[5],free UCHL3
same,protein species observed after compound treatment,[6],free UCHL3 L168F
same,growth arrest and apoptosis,[7],neither GK13S nor GK16S showed growth arrest nor apoptosis
same,toxicity (cell growth and viability),[8],nontoxic
same,melting temperature (Tm) of UCHL1,[9]; compound 1.25 µM,59.1 and 58.5
same,melting temperature (Tm) of UCHL1,[9]; compound 2.5 µM,58.8 and 59.1
same,melting temperature (Tm) of UCHL1,[9]; compound 5 µM,59.1
same,remaining activity at 0.000610352 µM,[10]; [18],98.8%
same,remaining activity at 0.0012207 µM,[10]; [18],96.5%
same,remaining activity at 0.00244141 µM,[10]; [18],95%
same,remaining activity at 0.00488281 µM,[10]; [18],91.2%
same,remaining activity at 0.00976562 µM,[10]; [18],85.3%
same,remaining activity at 0.0195312 µM,[10]; [18],76.8%
same,remaining activity at 0.0390625 µM,[10]; [18],65.7%
same,remaining activity at 0.078125 µM,[10]; [18],44.1%
same,remaining activity at 0.15625 µM,[10]; [18],23.2%
same,remaining activity at 0.3125 µM,[10]; [18],8.06%
same,remaining activity at 0.625 µM,[10]; [18],3.5%
same,remaining activity at 1.25 µM,[10]; [18],2.31%
same,remaining activity at 2.5 µM,[10]; [18],3.03%
same,remaining activity at 5 µM,[10]; [18],1.18%
same,remaining activity at 10 µM,[10]; [18],0.488%
same,IC50,"[10]; 1 h preincubation, mean ± SD of independent experiments, read-out: IC50 (UCHL1)",50 nM
same,IC50,"[10]; Fig. 6b, catalytic domain, 1 h preincubation with GK13S, read-out: IC50 (UCHL1)",87 ± 8 nM
same,normalized UCHL1 activity,[10]; [11],0.9506 and 0.9879 and 1.014 and 0.9975 and 0.9955
same,normalized UCHL1 activity,[10]; [12],0.9497 and 0.9646 and 1.019 and 1.0024 and 0.9988
same,normalized UCHL1 activity,[10]; [13],0.9185 and 0.9495 and 1.017 and 0.9974 and 0.9924
same,normalized UCHL1 activity,[10]; [14],0.8798 and 0.9115 and 1.0474 and 0.9893 and 0.9704
same,normalized UCHL1 activity,[10]; [15],0.8185 and 0.8529 and 0.9722 and 1.013 and 0.9579
same,normalized UCHL1 activity,[10]; [16],0.7093 and 0.7679 and 0.9238 and 0.9667 and 0.9242
same,normalized UCHL1 activity,[10]; [17],0.5709 and 0.6568 and 0.8808 and 0.9371 and 0.8799
same,IC50,"[10]; source data Fig. 3b, 1 h preincubation, read-out: Averaged IC50s from independent experiments (single experiments)",36 nM and 65 nM and 49 nM
